Literature values, collected in patent US9173857B2, “Controlled dose drug delivery system” (Shire LLC, priority 2006, dated 2015).

Experiments:
[1] = pulsatile capsule with release after a nominal 5-hr period; majority of subjects
[2] = wax-surfactant coating, higher coating level (60%)

| amounts of the drug observed in the blood [1] | lag time of drug release [2] | time required for complete release after the lag time [2] | Structure (SMILES) |
| --- | --- | --- | --- |
| no measurable amounts |  |  | C[C@H](CS)C(=O)N1CCC[C@H]1C(=O)O [captopril] |
|  | two-hour | three hours | Cn1c(=O)c2[nH]cnc2n(C)c1=O [theophylline] |
